Here are results for 27 compounds from patent US20020026053A1, “Novel 3-(substituted) -2- indolinones compounds and use thereof as inhibitors of protein kinase activity” (priority 1997, published 2002).

Each structure is given as a SMILES string.

T1 sequence (P00533 25-1210): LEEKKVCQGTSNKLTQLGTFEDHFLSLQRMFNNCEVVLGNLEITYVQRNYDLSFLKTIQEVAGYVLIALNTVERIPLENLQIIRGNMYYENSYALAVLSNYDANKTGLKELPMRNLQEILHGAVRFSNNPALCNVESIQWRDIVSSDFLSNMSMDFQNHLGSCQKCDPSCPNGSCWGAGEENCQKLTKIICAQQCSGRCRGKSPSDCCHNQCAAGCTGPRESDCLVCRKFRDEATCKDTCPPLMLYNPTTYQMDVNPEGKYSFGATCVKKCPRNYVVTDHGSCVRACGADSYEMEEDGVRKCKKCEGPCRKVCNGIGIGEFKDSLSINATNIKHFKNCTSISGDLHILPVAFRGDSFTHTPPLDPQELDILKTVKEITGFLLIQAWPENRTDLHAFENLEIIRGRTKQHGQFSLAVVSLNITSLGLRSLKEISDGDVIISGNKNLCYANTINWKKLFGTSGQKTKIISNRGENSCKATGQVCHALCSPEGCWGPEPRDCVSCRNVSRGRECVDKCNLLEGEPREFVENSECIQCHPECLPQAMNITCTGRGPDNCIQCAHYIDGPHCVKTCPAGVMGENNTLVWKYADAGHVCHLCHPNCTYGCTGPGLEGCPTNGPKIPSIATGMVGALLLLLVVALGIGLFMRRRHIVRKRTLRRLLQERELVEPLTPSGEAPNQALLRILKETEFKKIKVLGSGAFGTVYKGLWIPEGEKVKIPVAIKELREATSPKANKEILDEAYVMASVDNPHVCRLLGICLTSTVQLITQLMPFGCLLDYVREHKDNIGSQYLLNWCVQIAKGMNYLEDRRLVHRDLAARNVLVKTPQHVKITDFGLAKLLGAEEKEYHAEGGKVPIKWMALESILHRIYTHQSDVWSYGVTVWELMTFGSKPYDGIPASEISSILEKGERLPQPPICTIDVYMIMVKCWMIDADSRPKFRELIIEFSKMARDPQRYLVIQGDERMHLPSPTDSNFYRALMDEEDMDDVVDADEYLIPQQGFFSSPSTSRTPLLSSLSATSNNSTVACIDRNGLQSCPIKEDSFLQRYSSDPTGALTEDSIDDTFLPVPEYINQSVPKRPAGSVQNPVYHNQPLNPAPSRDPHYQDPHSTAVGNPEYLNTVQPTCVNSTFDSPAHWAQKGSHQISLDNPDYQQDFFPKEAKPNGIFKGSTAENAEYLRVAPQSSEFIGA

This assay has as its target T1, EGFR (Homo sapiens, UniProt P00533).
T1 construct: endogenous in cells; host or cells: A431 cells (lysate, captured with SUMO1 anti-EGFR antibody)
The experiment in a line: Biochemical EGFR Assay. Details: concentration or dose not given beside the values. The protocol:
This assay measures the in vitro kinase activity of EGFR using ELISA.
1. Corning 96-well Elisa plates (Corning Catalog No. 25805-96).
2. SUMO1 monoclonal anti-EGFR antibody (Biochemistry Lab, SUGEN, Inc.).
3. PBS (Dulbecco's Phosphate-Buffered Saline, Gibco Catalog No. 450-1300EB).
6. A431 cell lysate (Screening Lab, SUGEN, Inc.)
9. Adenosine-5′-triphosphate (ATP, from Equine muscle, Sigma Cat. No. A-5394).
Prepare a 1.0 mM solution in dH2O. This reagent should be made up immediately prior to use and kept on ice.
Prepare a 1.0 M stock solution in dH2O.
11. ATP/MnCl2 phosphorylation mix
This reagent should be prepared immediately before use and kept on ice
12. NUNC 96-well V bottom polypropylene plates (Applied Scientific Cat. No. AS-72092).
13. Ethylenediaminetetraacetic acid (EDTA)
Prepare 200 mM working solution in dH2O. Adjust to pH 8.0 with 10 N NaOH.
14. Rabbit polyclonal anti-phosphotyrosine serum (Biochemistry Lab, SUGEN, Inc.)
15. Goat anti-rabbit IgG peroxidase conjugate (Biosource Cat. No. ALI0404)
16. ABTS (2,2′-azino-bis(3-ethylbenzthiazoline-6-sulfonic acid), Sigma Cat. No. A-1888).
Mix first two ingredients in about 900 ml dH2O, adjust pH to 4.0 with phosphoric acid. Add ABTS, cover, let sit about 0.5 hr., filter. The solution should be kept in the dark at 4° C. until ready to use.
17. Hydrogen peroxide 30% solution (Fisher Cat. No. H325)
Mix 15 ml ABTS solution and 2.0 μl H2O2. Prepare 5 minutes before use.
1. Coat Corning 96 well ELISA plates with 0.5 μg SUMO1 in 100 μl PBS per well, store overnight at 4° C.
2. Remove unbound SUMO1 from wells by inverting plate to remove liquid. Wash 1× with dH2O. Pat the plate on a paper towel to remove excess liquid.
3. Add 150 μl of Blocking Buffer to each well. Incubate for 30 min. at room temperature with shaking.
4. Wash plate 3× with deionized water, then once with TBST. Pat plate on a paper towel to remove excess liquid and bubbles.
5. Dilute lysate in PBS (7 μg lysate/100 μl PBS)
6. Add 100 μl of diluted lysate to each well. Shake at room temperature for 60 min.
7. Wash plates as described in 4, above.
8. Add 120 μl TBS to ELISA plate containing captured EGFR.
9. Dilute test compound 1:10 in TBS in 96-well polypropylene plates (ie. 10 μl compound+90 μl TBS).
10. Add 13.5 μl diluted test compound to ELISA plate.
11. Incubate for 30 minutes while shaking at room temperature.
13. After 5 minutes, stop reaction by adding 16.5 μl of 200 mM EDTA (pH 8.0) to each well, shaking continuously. After the EDTA has been added, shake for 1 min.
14. Wash 4× with deionized water, twice with TBST.
15. Add 100 μl anti-phosphotyrosine (1:3000 dilution in TBST) per well. Incubate 30-45 min. at room temperature, with shaking.
16. Wash as described in 4, above.
17. Add 100 μl Biosource Goat anti-rabbit IgG peroxidase conjugate (1:2000 dilution in TBST) to each well. Incubate 30 min. at room temperature, with shaking.
18. Wash as described in 4, above.
19. Add 100 μl of ABTS/H2O2 solution to each well.
20. Incubate 5 to 10 minutes with shaking. Remove any bubbles.
21. If necessary stop reaction with the addition of 100 μl 0.2 M HCl per well.
22. Read assay on Dynatech MR7000 ELISA reader. Test Filter: 410 nM Reference Filter: 630 nM
For `Cc1c(Br)cc(Br)c2c1C(=Cc1cc(C(C)(C)C)c(OCc3ccccc3)c(C(C)(C)C)c1)C(=O)N2` [10733/H05], the “Biochem EGFR % Inhibition (P.167)” value came out at 15.9%.
Next, `Cc1cc2occ(C=C3C(=O)Nc4c(Br)cc(Br)c(C)c43)c(=O)c2cc1C` [10731/H03]: −1.5%.
Next, `Cc1c(Br)cc(Br)c2c1C(=Cc1cccnc1)C(=O)N2` [10729/H08]: 8.7%; `Cc1c(Br)cc(Br)c2c1C(=Cc1cc(O)c3c(c1O)CCCC3)C(=O)N2` [10726/H07]: 31.2%; `Cc1c(Br)cc(Br)c2c1C(=Cc1cccc(C(F)(F)F)c1F)C(=O)N2` [10728/H07]: −25.8%.
On to `Cc1c(Br)cc(Br)c2c1C(=Cc1ccccn1)C(=O)N2` [10729/H07], for which the “Biochem EGFR % Inhibition (P.167)” value turned out to be 30.0%.
For `Cc1c(Br)cc(Br)c2c1C(=C1C(=O)Nc3ccccc31)C(=O)N2` [10726/H09], the “Biochem EGFR % Inhibition (P.167)” value is −0.1%.
Next, `CCn1c2ccccc2c2cc(C=C3C(=O)Nc4c(Br)cc(Br)c(C)c43)ccc21` [10731/H02]: −9.5%; `Cc1c(Br)cc(Br)c2c1C(=C1C(=O)N(C)c3ccccc31)C(=O)N2` [10731/H10]: 3.5%; `Cc1ccc(C=C2C(=O)Nc3c(Br)cc(Br)c(C)c32)s1` [10717/H07]: 91.2%.
Next, `Cc1c(Br)cc(Br)c2c1C(=Cc1ccc(F)cc1)C(=O)N2` [10717/H05]: −2.0%; `Cc1cn(C)cc1C=C1C(=O)Nc2c(Br)cc(Br)c(C)c21` [10726/H06]: −9.2%.
Next, `Cc1c(Br)cc(Br)c2c1C(=Cc1cc(Br)ccc1O)C(=O)N2` [10733/H09]: −3.1%; `COc1c(Br)cc(C=C2C(=O)Nc3c(Br)cc(Br)c(C)c32)cc1C(C)(C)C` [10732/H07]: −15.3%; `CCN(CC)c1ccc(C=C2C(=O)Nc3c(Br)cc(Br)c(C)c32)cc1` [10727/H02]: −37.1%.
`CCc1cc(CC)c(C=C2C(=O)Nc3c(Br)cc(Br)c(C)c32)[nH]1` [10727/H03]: the “Biochem EGFR % Inhibition (P.167)” value is 4.5%.
Next, `Cc1c(Br)cc(Br)c2c1C(=Cc1ccncc1)C(=O)N2` [10729/H09]: 8.0%.
Next, `Cc1c(Br)cc(Br)c2c1C(=Cc1ccc(OCc3ccccc3)c(C(C)(C)C)c1)C(=O)N2` [10732/H06]: −6.9%; `C=C(C)C1CC=C(C=C2C(=O)Nc3c(Br)cc(Br)c(C)c32)CC1` (stereo not drawn) [10731/H04]: −1.7%.
Next, `Cc1c(Br)cc(Br)c2c1C(=Cc1coc3ccccc3c1=O)C(=O)N2` [10727/H07]: −17.3%.
In the case of `COc1ccc(C=C2C(=O)Nc3c(Br)cc(Br)c(C)c32)cc1C(C)(C)C` [10732/H05], the “Biochem EGFR % Inhibition (P.167)” value is recorded as −2.9%.
Next, `Cc1cc(C=C2C(=O)Nc3c(Br)cc(Br)c(C)c32)cc(C)c1OCc1ccccc1` [10733/H07]: −6.2%; `COc1cccc(OC)c1C=C1C(=O)Nc2c(Br)cc(Br)c(C)c21` [10728/H03]: 3.5%; `Cc1c(Br)cc(Br)c2c1C(=C1C(=O)Nc3ccc(F)cc31)C(=O)N2` [10726/H08]: −16.6%.
Take `Cc1c(Br)cc(Br)c2c1C(=Cc1c[nH]c3ccccc13)C(=O)N2` [10717/H06]: the “Biochem EGFR % Inhibition (P.167)” value was −16.8%.
As to `COc1ccc2[nH]cc(C=C3C(=O)Nc4c(Br)cc(Br)c(C)c43)c2c1` [10731/H09], the “Biochem EGFR % Inhibition (P.167)” value is reported as −2.7%.
Next, `COc1ccc(C=C2C(=O)Nc3c(Br)cc(Br)c(C)c32)c2ccccc12` [10729/H03]: 30.3%.
